Measured values as given in US20250276980A1, “SALTS OF A HETEROCYCLIC COMPOUND AND CRYSTALLINE FORMS, PROCESSES FOR PREPARING, THERAPEUTIC USES, AND PHARMACEUTICAL COMPOSITIONS THEREOF” (Sunovion Pharmaceuticals Inc., priority 2020, published 2025).
“Also recorded” adds a separate entry of the source. Like-named read-outs stand apart in the source and are kept apart here.

What was measured:
Format in all cases: physicochemical
[1] = Polymorph study of Compound 1 Hydrochloride (solvent, slurry screening, scale up; FT-Raman/XRPD); conditions: on filtration/drying, humidity or room temperature
Protocol: FT-Raman analyses were performed by using MultiRAM (Bruker Optics). Each suspension or dry powder sample was measured from out of glass vial. The measurement condition is shown below: • Excitation wavelength: 1064 nm • Laser power: 500 mW • Wavenumber: 4 cm-1 • Sample scan: 128 times
X-ray Powder Diffraction (XRPD) spectra were obtained by X′ pert Pro MPD (Spectris). X-rays was generated with Cu Kα radiation. The powder samples were put on the reflection free sample plate. The XRPD patterns were analyzed by HighScorePlus. The measurement condition is shown below: • Range angle: From 4 to 30°, to 40° and to 65° (20) • Step size: 0.017° • Time per step: 100 s
Compound 1 Hydrochloride, Form HA (about 5 mg) was put into each small glass vial and various types of solvents were added until the sample was dissolved at about 90° C. or boiling point. Maximum volume of solvent was about 500 μL. After the solution and suspension was heated for a few hours, the heater was switched off and the sample was cooled. The vials were preserved at about 5° C. Crystals obtained in the vials were measured directly by FT-Raman. After solvent was evaporated by opening the cap of vial, crystals obtained were also measured directly by FT-Raman. Solids were then collected and evaluated by XRPD and thermal analysis as needed.
Compound 1 Hydrochloride, Form HA (about 10 mg) was put into each small glass vial and various types of organic solvents mixed with water were added. After each sample was suspended at room temperature for about 3 days, suspended solids in the vials were measured directly by FT-Raman. Furthermore, each sample was suspended at about 50° C. for about 3 days and these were measured directly by FT-Raman. Solids were then collected and evaluated by XRPD, thermal analysis and DVS as needed.
Compound 1 Hydrochloride, Form HA (about 100 mg) was put into a glass vial and about 1 mL of EtOH mixed with water (10:1) was added. […] It was analyzed by XRPD, thermal analysis, ^1H-NMR, elemental analysis and ion-chromatography.

[2] = Temperature controlled XRPD (crystal form stability on heating); conditions: up to melting
Protocol: Temperature controlled XRPD was measured by the X'pert-MPD with an Anton Paar TCU 100 Temperature Control Unit. Sample was measured from 30° C. to 250° C. or 270° C. with 10° C. increments. Measurement conditions were as follows: range: 4-30°, step: 0.017°, time per step: 100 s.
FT-Raman, XRPD, DSC, TGA, and DVS instruments and techniques were similar to those in Example 3. Temperature controlled XRPD was measured by X'pert-Pro MIPD (Spectris) with TCU 100 Temperature Control Unit (Anton Paar). The temperature of the sampling stage was increased step by step as programmed and XRPD patterns of sample were measured at each step. The measurement condition is shown below: • Range angle: From 4 to 30° • Step size: 0.017° • Time per step: 100 s

[3] = Thermogravimetric analysis (TGA); conditions: for TG weight loss: from 70° C., hydrochloride
Protocol: TGA analyses were performed using a TA Instruments TGA Q500 thermogravimetric analyzer. Each sample was analyzed on a platinum pan, heated under a nitrogen purge at a rate of 10° C./min, from room temperature to 250° C. or 300° C.
Thermo-Gravimetric Analyzer (TGA) analyses were performed using TGA Q500 thermogravimetric analyzer (TA Instruments). Each sample was analyzed on a platinum pan. The measurement condition is shown below: • Atmosphere: Nitrogen • Elevated temperature rate: 10° C./min • Temperature range: From room temperature to 250 or 300° C.

[4] = Dynamic vapor sorption (DVS) moisture sorption isotherm, Hiden IGA-sorp; conditions: for weight gain when humidity increased from 0% RH to 95% RH: 25° C., 0% RH up to 95% RH
Protocol: (§1) DVS moisture sorption isotherms were generated using a Hiden Analytical IGA-sorp moisture sorption analyzer. Samples were run as received without pre-analysis drying. Each sample was equilibrated between about 30 and 120 minutes at each relative humidity (RH) step. Temperature was fixed at about 25° C. and the relative humidity steps (0 to 95% RH) were in 5-10% increments. Sample sizes ranged from 3 to 30 mg. After DVS measurement, XRPD was measured in order to check the solid form. Dynamic Vapor sorption (DVS) moisture sorption isotherms were generated using IGA-sorp moisture sorption analyzer (Hiden Analytical). Sample measurements were run without drying before analyses. XRPD was measured in order to check any changes of the solid form after the moisture sorption/desorption. The measurement condition is shown below: • Time at each RH steps: From 30 to 120 minutes • Relative humidity steps: 5 or 10% steps • Temperature: 25° C.

[5] = XRPD before and after DVS measurement (moisture sorption/desorption)
Protocol: as §1

[6] = Storage at 75% RH (saturated NaCl), solid form checked by Raman/XRPD; conditions: overnight / 1 day
Protocol: Fumaric acid salt Form FB has about 3.8% weight loss from low temperature with TGA measurement. From DVS result, there is about 5% weight gain at over 75% RH, so polymorphic form seems to be changed. […] Therefore, Form FA seems to be di-hydrate. Form FB seems to be mono-hydrate. The thermal behavior of Form FA is a little different from that of Form FB. Form FA generated the experiment described above using about 28 mg of fumaric acid and about 2 mL of THE seems to be easy to be dehydrated. It can be affected by vacuum dry. When Form FA and Form FB are placed under dry condition or heated, anhydrous form can be obtained. But they are quickly transformed to be hydrous form by obtaining water in the air.
It was confirmed that Form HC was reproducible even in the scale up study. […] The NMR spectrum shown indicated no presence of organic solvents.

[7] = Solubility of Compound 1 Tosylate in solvents
Protocol: Considering the formation of the genotoxic impurities with alcohol, water was selected as the solvent and acetone as the anti-solvent. The solubility in the water-acetone binary solvent system indicates the feasibility for crystallization in this solvent system. Further solubility was also measured to help define the operation conditions.

[8] = Differential scanning calorimetry (DSC); conditions: sealed pan, 10° C./min
Protocol: DSC chart was obtained using a TA Instruments DSC Q1000 differential scanning calorimeter. Each sample was analyzed in a crimped pan with a pinhole, heated under a nitrogen purge at a rate of 10° C./min, from 10° C. to 250° C. or 300° C.
Differential Scanning Calorimeter (DSC) chart was obtained by DSC Q1000 differential scanning calorimeter (TA Instruments). Each sample was analyzed in a crimped pan with a pinhole. The measurement condition is shown below: • Atmosphere: Nitrogen • Elevated temperature rate: 10° C./min • Temperature range: From 10° C. to 250 or 300° C.
All DSC analyses were performed using TA Instruments Q100 differential scanning calorimeter. Lots 1-3 were analyzed in a sealed pan. Each sample was heated under a 50 mL/min nitrogen purge at a heating rate of 10° C./min, from a starting temperature of 25° C. up to a final temperature of 300° C. Sample size ranged from […].

[9] = Lot 1, recrystallized from water/acetone
[10] = Lot 2, recrystallized from water/acetone
[11] = Lot 3, recrystallized from water/acetone

CNC[C@@H]1OCCn2nc3ccccc3c21.Cl [Form HB, (S)-1-(3,4-dihydro-1H-[1,4]oxazino[4,3-b]indazol-1-yl)-N-methylmethanamine hydrochloride]
stability of the crystal form [1]: transformed to Form HC or Form HA when it was filtrated and dried; also recorded: Not stable

CNC[C@@H]1OCCn2nc3ccccc3c21.O=C(O)/C=C/C(=O)O [Form FA, (S)-1-(3,4-dihydro-1H-[1,4]oxazino[4,3-b]indazol-1-yl)-N-methylmethanamine fumarate]
transformation to another polymorph on heating [2]: not transformed to any other polymorph

CNC[C@@H]1OCCn2nc3ccccc3c21.Cc1ccc(S(=O)(=O)O)cc1 [Form TA, (S)-1-(3,4-dihydro-1H-[1,4]oxazino[4,3-b]indazol-1-yl)-N-methylmethanamine tosylate]
TGA weight loss (in words) [3]: no weight loss until melting | weight gain when humidity increased from 0% RH to 95% RH [4]: ~1% | hygroscopicity (in words) ([4]; tosylate): less hygroscopicity; also recorded: good hygroscopicity behavior; also recorded: non-hygroscopicity | transformation to another polymorph on heating ([2]; tosylate): not transformed to any other polymorph; also recorded: not transformed to another form until the melting point | change of crystal form after DVS measurement [5]: no changes of the crystal form

CNC[C@@H]1OCCn2nc3ccccc3c21.Cl [Form HA, (S)-1-(3,4-dihydro-1H-[1,4]oxazino[4,3-b]indazol-1-yl)-N-methylmethanamine hydrochloride]
TG weight loss [3]: over 17.1% | weight gain at 95% RH ([4]; about 25° C.): over 100% | hygroscopicity (in words) ([4]; hydrochloride): Highly hygroscopic | change of crystal form after DVS measurement ([5]; hydrochloride): transformed to Form HC mixed with an unidentified polymorph

CNC[C@@H]1OCCn2nc3ccccc3c21.Cl [Form HD, (S)-1-(3,4-dihydro-1H-[1,4]oxazino[4,3-b]indazol-1-yl)-N-methylmethanamine hydrochloride]
stability of the crystal form [1]: Transformed to Form C at room temperature

CNC[C@@H]1OCCn2nc3ccccc3c21.O=S(=O)(O)c1ccccc1 [Compound 1 Besylate, (S)-1-(3,4-dihydro-1H-[1,4]oxazino[4,3-b]indazol-1-yl)-N-methylmethanamine benzenesulfonate]
TGA weight loss (in words) [3]: no weight loss until melting | weight gain at 95% RH ([4]; about 25° C.): about 2% | hygroscopicity (in words) ([4]; listed as besylate, benzenesulfonate): less hygroscopicity; also recorded: low hygroscopicity

CNC[C@@H]1OCCn2nc3ccccc3c21.O=C(O)/C=C/C(=O)O [Form FB, (S)-1-(3,4-dihydro-1H-[1,4]oxazino[4,3-b]indazol-1-yl)-N-methylmethanamine fumarate]
TGA weight loss ([3]; from low temperature): about 3.8% | weight gain at over 75% RH ([4]; over 75% RH): about 5% | change of crystal form on storage at high humidity [6]: Form FA was observed

CNC[C@@H]1OCCn2nc3ccccc3c21.Cc1ccc(S(=O)(=O)O)cc1 [Compound 1 Tosylate, (S)-1-(3,4-dihydro-1H-[1,4]oxazino[4,3-b]indazol-1-yl)-N-methylmethanamine tosylate]
weight gain at 95% RH ([4]; about 25° C.): about 1% | hygroscopicity (in words) ([4]; listed as Tosylate, tosylate): less hygroscopicity | hygroscopicity (in words) ([4]; listed as tosylate, tosylate): low hygroscopicity | solubility (in words) [7]: decent solubility in methanol and water | DSC Onset [8, 9]: 240.5 °C | DSC Peak [8, 9]: 241.9 °C | DSC ΔHf [8, 9]: 122 J/g | DSC Onset [8, 10]: 240.2 °C | DSC Peak [8, 10]: 241.7 °C | DSC ΔHf [8, 10]: 113 J/g | DSC Onset [8, 11]: 239.7 °C | DSC Peak [8, 11]: 241.4 °C | DSC ΔHf [8, 11]: 123 J/g

CNC[C@@H]1OCCn2nc3ccccc3c21.O=S(=O)(O)c1ccccc1 [Form BA, (S)-1-(3,4-dihydro-1H-[1,4]oxazino[4,3-b]indazol-1-yl)-N-methylmethanamine benzenesulfonate]
weight gain at 90% RH ([4]; another batch of Form BA): about 1% | weight gain at 90% RH ([4]; one batch of Form BA): about 2% | weight gain at 95% RH ([4]; another batch of Form BA): about 2% | weight gain at 95% RH ([4]; one batch of Form BA): about 8% | hygroscopicity (in words) ([4]; benzenesulfonate): less hygroscopicity; also recorded: good hygroscopicity behavior | transformation to another polymorph on heating [2]: not transformed to any other polymorph

CNC[C@@H]1OCCn2nc3ccccc3c21.O=C(O)/C=C/C(=O)O [Compound 1 Fumarate, (S)-1-(3,4-dihydro-1H-[1,4]oxazino[4,3-b]indazol-1-yl)-N-methylmethanamine fumarate]
hygroscopicity (in words) [4]: no hygroscopicity

CNC[C@@H]1OCCn2nc3ccccc3c21.O=P(O)(O)O [Compound 1 Phosphate, (S)-1-(3,4-dihydro-1H-[1,4]oxazino[4,3-b]indazol-1-yl)-N-methylmethanamine phosphate]
TGA weight loss (in words) ([3]; listed as phosphate salt, phosphate): large amount of weight loss at low temperature | TGA weight loss (in words) ([3]; phosphate): large amount of weight loss from low temperature

CNC[C@@H]1OCCn2nc3ccccc3c21.Cl [Form HC, (S)-1-(3,4-dihydro-1H-[1,4]oxazino[4,3-b]indazol-1-yl)-N-methylmethanamine hydrochloride]
TG weight loss [3]: 6.6% | weight gain when humidity increased from 0% RH to 95% RH [4]: 9.3% | weight gain between 60% RH and 70% RH ([4]; between 60% RH and 70% RH): 6.5% | hygroscopicity (in words) ([4]; hydrochloride): hygroscopic | stability of the crystal form [1]: Transformed to Form D at the humidity level of more than 70% RH | change of crystal form after DVS measurement ([5]; hydrochloride): basically stable | change of crystal form on storage at high humidity [6]: transformed to Form HD
